From the SangsterLogP compilation

Test: method code SF-AS, from PMID: 1608988
Conditions: pH 7.3

CCCOc1cccc(NC(=O)OCCN2CCOCC2)c1
logD: 2.5

CCCCOc1ccc(NC(=O)OCCN2CCOCC2)cc1
logD: 2.8

CCCCCCCOc1ccccc1NC(=O)OCCN1CCOCC1
logD: 3.99

CCCCCCCOc1ccc(NC(=O)OCCN2CCOCC2)cc1
logD: 4.41

CCCCCOc1cccc(NC(=O)OCCN2CCOCC2)c1
logD: 3.58

CCOc1ccc(NC(=O)OCCN2CCOCC2)cc1
logD: 1.63

CCCCCOc1ccc(NC(=O)OCCN2CCOCC2)cc1
logD: 3.41

COc1cccc(NC(=O)OCCN2CCOCC2)c1
logD: 1.64

CCCCOc1cccc(NC(=O)OCCN2CCOCC2)c1
logD: 3.08

CCCCCCCCOc1ccc(NC(=O)OCCN2CCOCC2)cc1
logD: 4.8

CCCCOc1ccccc1NC(=O)OCCN1CCOCC1
logD: 2.73

CCCCCCCCOc1ccccc1NC(=O)OCCN1CCOCC1
logD: 4.43

CCCCCCCCOc1cccc(NC(=O)OCCN2CCOCC2)c1
logD: 4.42

CCCCCOc1ccccc1NC(=O)OCCN1CCOCC1
logD: 3.18

CCCCCCOc1ccccc1NC(=O)OCCN1CCOCC1
logD: 3.68

CCCOc1ccc(NC(=O)OCCN2CCOCC2)cc1
logD: 2.24

CCCCCCOc1ccc(NC(=O)OCCN2CCOCC2)cc1
logD: 3.96

COc1ccccc1NC(=O)OCCN1CCOCC1
logD: 1.2

CCCCCCOc1cccc(NC(=O)OCCN2CCOCC2)c1
logD: 4.19

CCCOc1ccccc1NC(=O)OCCN1CCOCC1
logD: 2.26

CCOc1ccccc1NC(=O)OCCN1CCOCC1
logD: 1.76

CCCCCCCOc1cccc(NC(=O)OCCN2CCOCC2)c1
logD: 4.73
